# Test results published in patent US20230338378A1, “Methods of Administering Myosin Inhibitors” (MYOKARDIA, INC., priority 2022, published 2023).
# Experiments:
# [1] = system: CYP2C19, CYP3A4; assay: Established and Potentially Significant Pharmacokinetic Drug Interactions with MAVACAMTEN (Table 1); settings: Concomitant use with a moderate to strong CYP2C19 inducer or a moderate to strong CYP3A4 inducer
# [2] = Excretion after a single 25 mg dose of radiolabeled mavacamten; format: in vivo; settings: single 25 mg dose of radiolabeled mavacamten
# Experimental: Following a single 25 mg dose of radiolabeled mavacamten, 7% of the dose was recovered in feces (1% unchanged) and 85% in urine (3% unchanged).
# [3] = system: pregnant rabbits; assay: Embryo-fetal development study in pregnant rabbits; format: in vivo, rabbit
# Experimental: Visceral findings consisted of malformations of the great vessels (dilatation of pulmonary trunk and/or aortic arch). Skeletal malformations consisted of higher incidences of fused sternebrae at ≥1.2 mg/kg/day. Plasma exposure (AUC) at the no-effect dose for embryo-fetal development in rabbits is 0.4 times the exposure in humans at the MRHD.
# [4] = target: CYP2D6 (Homo sapiens, UniProt P10635); assay: In vitro CYP inhibition; format: in vitro ADME; settings: In Vitro Studies; clinically relevant concentrations
# Chain of CYP2D6 (P10635 whole entry): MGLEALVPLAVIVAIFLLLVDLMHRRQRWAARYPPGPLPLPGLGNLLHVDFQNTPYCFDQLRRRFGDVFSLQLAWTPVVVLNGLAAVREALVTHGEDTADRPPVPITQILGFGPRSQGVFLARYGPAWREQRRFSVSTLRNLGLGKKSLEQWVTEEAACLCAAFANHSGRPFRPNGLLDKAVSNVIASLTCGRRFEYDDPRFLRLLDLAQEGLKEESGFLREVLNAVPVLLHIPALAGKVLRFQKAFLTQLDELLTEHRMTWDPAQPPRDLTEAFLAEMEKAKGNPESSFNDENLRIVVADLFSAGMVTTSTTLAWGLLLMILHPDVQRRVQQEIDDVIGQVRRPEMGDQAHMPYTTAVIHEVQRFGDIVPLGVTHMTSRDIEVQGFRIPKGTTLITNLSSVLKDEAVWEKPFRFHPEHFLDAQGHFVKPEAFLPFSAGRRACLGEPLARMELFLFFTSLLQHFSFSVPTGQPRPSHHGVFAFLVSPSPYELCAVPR
# [5] = system: bacterial reverse mutation; assay: Bacterial reverse mutation test (Ames test); format: cell-based
# [6] = target: CYP2C9 (Homo sapiens, UniProt P11712); assay: In vitro CYP inhibition; format: in vitro ADME; settings: In Vitro Studies; clinically relevant concentrations
# Chain of CYP2C9 (P11712 whole entry): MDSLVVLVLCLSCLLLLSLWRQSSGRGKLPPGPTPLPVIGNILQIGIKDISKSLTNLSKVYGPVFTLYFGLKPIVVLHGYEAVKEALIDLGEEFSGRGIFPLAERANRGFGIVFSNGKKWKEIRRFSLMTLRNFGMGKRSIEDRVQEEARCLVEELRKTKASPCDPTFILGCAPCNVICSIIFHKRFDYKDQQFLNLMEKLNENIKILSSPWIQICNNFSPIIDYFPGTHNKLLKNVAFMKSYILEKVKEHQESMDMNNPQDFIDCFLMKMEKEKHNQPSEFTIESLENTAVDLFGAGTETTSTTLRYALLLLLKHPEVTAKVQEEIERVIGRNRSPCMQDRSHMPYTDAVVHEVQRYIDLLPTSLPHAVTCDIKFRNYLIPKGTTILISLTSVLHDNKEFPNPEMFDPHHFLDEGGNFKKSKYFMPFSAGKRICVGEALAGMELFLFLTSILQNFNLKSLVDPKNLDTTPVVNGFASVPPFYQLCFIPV
# [7] = target: T1, CYP3A4 (Homo sapiens, UniProt P08684); assay: Metabolism through CYP enzymes
# T1 sequence (P08684 whole entry): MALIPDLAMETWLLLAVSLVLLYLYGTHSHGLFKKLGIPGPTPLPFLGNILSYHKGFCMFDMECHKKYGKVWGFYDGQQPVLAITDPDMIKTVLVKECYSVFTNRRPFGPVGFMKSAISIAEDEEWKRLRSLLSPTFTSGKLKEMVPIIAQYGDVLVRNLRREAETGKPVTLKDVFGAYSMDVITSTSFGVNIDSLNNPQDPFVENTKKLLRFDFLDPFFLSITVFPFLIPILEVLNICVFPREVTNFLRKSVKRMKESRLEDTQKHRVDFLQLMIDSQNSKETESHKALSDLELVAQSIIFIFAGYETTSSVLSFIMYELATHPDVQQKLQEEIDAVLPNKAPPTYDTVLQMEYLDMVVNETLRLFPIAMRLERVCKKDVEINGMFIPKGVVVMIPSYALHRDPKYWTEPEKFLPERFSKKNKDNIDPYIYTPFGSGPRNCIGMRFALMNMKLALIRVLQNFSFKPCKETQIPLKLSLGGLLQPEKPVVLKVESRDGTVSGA
# [8] = target: T1, CYP3A4; assay: In vitro CYP inhibition; format: in vitro ADME; settings: In Vitro Studies; clinically relevant concentrations
# [9] = target: MATE1 (Homo sapiens, UniProt Q96FL8); assay: In vitro transporter inhibition; format: in vitro ADME; settings: In Vitro Studies
# Chain of MATE1 (Q96FL8 whole entry): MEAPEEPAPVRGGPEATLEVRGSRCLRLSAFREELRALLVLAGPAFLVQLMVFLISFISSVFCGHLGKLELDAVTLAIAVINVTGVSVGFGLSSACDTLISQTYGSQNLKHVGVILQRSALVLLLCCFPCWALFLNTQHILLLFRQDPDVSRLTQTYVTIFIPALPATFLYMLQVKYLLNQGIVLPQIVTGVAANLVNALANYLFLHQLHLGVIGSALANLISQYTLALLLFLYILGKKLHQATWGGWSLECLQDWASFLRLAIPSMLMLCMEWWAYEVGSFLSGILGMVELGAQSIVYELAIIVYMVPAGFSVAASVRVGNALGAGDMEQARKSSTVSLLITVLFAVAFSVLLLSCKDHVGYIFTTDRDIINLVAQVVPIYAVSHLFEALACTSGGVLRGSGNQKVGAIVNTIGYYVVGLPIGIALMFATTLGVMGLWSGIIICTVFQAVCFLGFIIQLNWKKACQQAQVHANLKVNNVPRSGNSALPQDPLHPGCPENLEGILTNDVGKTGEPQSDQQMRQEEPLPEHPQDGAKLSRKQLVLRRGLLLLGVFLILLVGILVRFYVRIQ
# [10] = system: pregnant rats; assay: Embryo-fetal development study in pregnant rats; format: in vivo, rat
# Excerpt: Plasma exposure (based on area under the concentration-time curve or AUC) at the no-effect dose for embryo-fetal development in rats is 0.3 times the exposure in humans at the MRHD.
# [11] = target: BSEP (Homo sapiens, UniProt O95342); assay: In vitro transporter inhibition; format: in vitro ADME; settings: In Vitro Studies
# Chain of BSEP (O95342 whole entry): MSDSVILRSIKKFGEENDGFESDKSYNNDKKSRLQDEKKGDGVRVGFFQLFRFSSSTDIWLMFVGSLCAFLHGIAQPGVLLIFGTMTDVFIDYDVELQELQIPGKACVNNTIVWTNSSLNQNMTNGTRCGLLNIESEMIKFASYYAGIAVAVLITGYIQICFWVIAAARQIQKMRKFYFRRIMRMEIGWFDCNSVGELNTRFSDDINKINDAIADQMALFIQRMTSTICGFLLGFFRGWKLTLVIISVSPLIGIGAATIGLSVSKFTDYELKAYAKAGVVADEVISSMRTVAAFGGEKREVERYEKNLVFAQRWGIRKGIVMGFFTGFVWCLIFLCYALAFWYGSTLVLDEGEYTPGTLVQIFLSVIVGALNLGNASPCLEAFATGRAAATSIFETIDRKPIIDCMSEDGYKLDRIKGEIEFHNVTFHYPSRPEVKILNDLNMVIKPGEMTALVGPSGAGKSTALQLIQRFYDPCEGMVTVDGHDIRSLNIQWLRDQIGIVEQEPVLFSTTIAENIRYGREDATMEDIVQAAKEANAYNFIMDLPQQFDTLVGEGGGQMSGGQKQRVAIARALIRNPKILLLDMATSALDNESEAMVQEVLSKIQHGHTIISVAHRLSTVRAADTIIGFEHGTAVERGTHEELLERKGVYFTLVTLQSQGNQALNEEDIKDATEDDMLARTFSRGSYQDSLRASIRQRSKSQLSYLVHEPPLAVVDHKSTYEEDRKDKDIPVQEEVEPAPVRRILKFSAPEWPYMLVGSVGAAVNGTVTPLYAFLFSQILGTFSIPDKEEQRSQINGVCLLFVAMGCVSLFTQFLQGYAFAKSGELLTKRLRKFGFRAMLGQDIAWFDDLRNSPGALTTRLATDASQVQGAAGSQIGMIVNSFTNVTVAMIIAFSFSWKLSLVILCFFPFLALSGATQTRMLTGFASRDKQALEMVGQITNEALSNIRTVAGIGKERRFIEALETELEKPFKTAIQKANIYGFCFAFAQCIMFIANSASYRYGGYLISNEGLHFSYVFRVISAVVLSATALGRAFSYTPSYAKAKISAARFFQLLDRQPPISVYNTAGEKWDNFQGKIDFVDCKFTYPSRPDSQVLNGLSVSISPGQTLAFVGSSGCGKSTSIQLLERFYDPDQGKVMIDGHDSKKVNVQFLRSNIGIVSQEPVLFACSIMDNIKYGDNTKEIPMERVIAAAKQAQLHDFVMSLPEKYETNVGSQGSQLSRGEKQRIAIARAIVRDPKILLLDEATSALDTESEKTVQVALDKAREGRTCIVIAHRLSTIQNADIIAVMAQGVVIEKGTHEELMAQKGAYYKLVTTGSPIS
# [12] = target: CYP2C19 (Homo sapiens, UniProt P33261); assay: Concomitant use with weak CYP2C19 inhibitor omeprazole; format: in vivo; set-up: Mavacamten is hepatically metabolized predominantly via CYP2C19 (74%), CYP3A4 (18%) and CYP2C9 (8%); from tissue; host or cells: liver of human subjects in vivo, or a Simcyp virtual population; settings: mavacamten 15 mg with omeprazole 20 mg once daily; healthy CYP2C19 NMs and RMs
# Chain of CYP2C19 (P33261 whole entry): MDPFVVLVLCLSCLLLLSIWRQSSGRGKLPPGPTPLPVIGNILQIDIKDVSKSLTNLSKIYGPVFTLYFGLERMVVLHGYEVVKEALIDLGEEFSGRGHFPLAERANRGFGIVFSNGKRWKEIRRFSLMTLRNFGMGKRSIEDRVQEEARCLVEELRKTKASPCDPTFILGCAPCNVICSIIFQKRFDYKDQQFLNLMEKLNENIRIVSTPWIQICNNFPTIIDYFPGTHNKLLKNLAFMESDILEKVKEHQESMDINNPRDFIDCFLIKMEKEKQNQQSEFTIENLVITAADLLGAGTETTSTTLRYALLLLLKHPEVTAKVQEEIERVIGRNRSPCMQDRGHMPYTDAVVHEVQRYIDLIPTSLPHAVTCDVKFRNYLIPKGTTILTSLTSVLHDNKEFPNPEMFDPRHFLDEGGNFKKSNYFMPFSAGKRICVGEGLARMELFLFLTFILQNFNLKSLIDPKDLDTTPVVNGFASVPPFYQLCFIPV
# [13] = system: healthy volunteers; assay: Cardiac electrophysiology (QTc) in healthy volunteers; format: in vivo, human
# Excerpt: The mechanism of the QT prolongation effect is not known.
# [14] = system: lymphocyte; assay: Human in vitro lymphocyte clastogenicity assay; format: cell-based
# [15] = system: pregnant rats; assay: Pre/postnatal development study in rats; format: in vivo, rat
# Experimental: In a pre/postnatal development study, mavacamten was administered orally to pregnant rats (0.3, to 1.5 mg/kg/day) from gestation Day 6 to lactation/post-partum Day 20.
# [16] = target: CYP1A2 (Homo sapiens, UniProt P05177); assay: In vitro CYP inhibition; format: in vitro ADME; settings: In Vitro Studies
# Chain of CYP1A2 (P05177 whole entry): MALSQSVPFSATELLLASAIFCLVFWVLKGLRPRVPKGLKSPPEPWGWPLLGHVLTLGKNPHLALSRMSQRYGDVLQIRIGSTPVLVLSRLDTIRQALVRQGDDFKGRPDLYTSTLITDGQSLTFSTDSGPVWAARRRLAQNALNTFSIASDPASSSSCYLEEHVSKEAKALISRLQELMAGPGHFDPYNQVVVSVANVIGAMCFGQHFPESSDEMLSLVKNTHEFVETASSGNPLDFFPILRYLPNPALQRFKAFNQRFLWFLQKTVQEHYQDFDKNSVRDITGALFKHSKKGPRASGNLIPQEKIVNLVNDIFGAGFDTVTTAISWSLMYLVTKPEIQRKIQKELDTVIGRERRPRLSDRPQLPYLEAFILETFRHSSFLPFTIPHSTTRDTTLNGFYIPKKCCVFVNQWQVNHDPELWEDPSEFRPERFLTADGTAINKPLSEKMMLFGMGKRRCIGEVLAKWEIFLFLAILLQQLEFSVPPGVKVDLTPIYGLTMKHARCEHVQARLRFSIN
smiles,measurement,setting,value
"CC(C)n1c(=O)cc(N[C@@H](C)c2ccccc2)[nH]c1=O [mavacamten, (S)-3-Isopropyl-6-((1-phenylethyl)amino)pyrimidine-2,4(1H,3H)-dione]",Clinical Impact on mavacamten exposure,[1],"moderate to strong CYP3A4 inducer decreases mavacamten exposure,"
same,dose recovered in feces,[2],7%
same,dose recovered in feces unchanged,[2],1%
same,dose recovered in urine,[2],85%
same,dose recovered in urine unchanged,[2],3%
same,embryo-fetal findings,"[3]; pregnant rabbits, oral, period of organogenesis, doses of 1.2 mg/kg/day and higher",fetal malformations (visceral and skeletal) were increased
same,Plasma exposure (AUC) at the no-effect dose for embryo-fetal development vs exposure in humans at the MRHD,[3]; rabbits,0.4 times
same,inhibition of CYP2D6,[4],not an inhibitor
same,genotoxicity,[5],not genotoxic
same,inhibition of CYP2C9,[6],not an inhibitor
same,metabolized through CYP3A4,[7],18%
same,inhibition of CYP3A4,[8],not an inhibitor
same,inhibition of MATE1,[9],does not inhibit
same,embryo-fetal findings,"[10]; pregnant rats, oral, period of organogenesis, high dose group (1.5 mg/kg/day)","increases in post-implantation loss, decreases in mean fetal body weight, reductions in fetal ossification of bones, and fetal malformations (visceral and skeletal) were observed"
same,Plasma exposure (AUC) at the no-effect dose for embryo-fetal development vs exposure in humans at the MRHD,[10]; rats,0.3 times
same,inhibition of BSEP,[11],does not inhibit
same,effect on mavacamten Cmax,[12],no effect
same,mavacamten AUCinf increase,[12],48%
same,QTc interval,"[13]; healthy volunteers, multiple doses up to 25 mg once daily",concentration-dependent increase in the QTc interval
same,QTc interval,[13]; similar exposures during single-dose studies,No acute QTc changes
same,genotoxicity,[14],not genotoxic
same,no-observed-adverse-effect level (NOAEL),"[15]; pre/postnatal development study, rats, highest dosage level tested",1.5 mg/kg/day
same,effects in dams or offspring,"[15]; pregnant rats, oral 0.3 to 1.5 mg/kg/day, gestation Day 6 to lactation/post-partum Day 20",No adverse effects were observed
same,inhibition of CYP1A2,[16],does not inhibit
